Data as given in ChEMBL document CHEMBL1152576, “E-Combretastatin and E-resveratrol structural modifications: antimicrobial and cancer cell growth inhibitory beta-E-nitrostyrenes” (Bioorg Med Chem, 2009).
In brackets after ≈: the same amount, converted by molar mass. Activity calls are given as the source filed them. No cut-off for these calls is given here.

Experiments:
Staphylococcus aureus [1] = assay: Antimicrobial activity against Staphylococcus aureus ATCC 29213 by broth microdilution susceptibility assay; assay type: functional
Escherichia coli [2] = assay: Antimicrobial activity against Escherichia coli ATCC 25922 by broth microdilution susceptibility assay; assay type: functional
A498 = assay: Cytotoxicity against human A498 cells after 48 hrs by sulforhodamine B assay; assay type: functional
Neisseria gonorrhoeae [3] = assay: Antimicrobial activity against Neisseria gonorrhoeae ATCC 49226 by broth microdilution susceptibility assay; assay type: functional
Enterobacter cloacae [4] = assay: Antimicrobial activity against Enterobacter cloacae ATCC 13047 assessed clear zone in inhibition per disk by CLSI disk diffusion susceptibility assay; assay type: functional
Micrococcus luteus [5] = assay: Antimicrobial activity against Micrococcus luteus Presque Isle 456 assessed clear zone in inhibition per disk by CLSI disk diffusion susceptibility assay; assay type: functional
OVCAR-3 = assay: Cytotoxicity against human OVCAR-3 cells after 48 hrs by sulforhodamine B assay; assay type: functional
Staphylococcus aureus [6] = assay: Antimicrobial activity against Staphylococcus aureus ATCC 29213 assessed clear zone in inhibition per disk by CLSI disk diffusion susceptibility assay; assay type: functional
SK-MEL-5 = assay: Cytotoxicity against human SK-MEL-5 cells after 48 hrs by sulforhodamine B assay; assay type: functional
Streptococcus pneumoniae [7] = assay: Antimicrobial activity against Streptococcus pneumoniae ATCC 6303 assessed clear zone in inhibition per disk by CLSI disk diffusion susceptibility assay; assay type: functional
Candida albicans [8] = assay: Antimicrobial activity against Candida albicans ATCC 90028 assessed clear zone in inhibition per disk by CLSI disk diffusion susceptibility assay; assay type: functional
Candida albicans [9] = assay: Antifungal activity against Candida albicans ATCC 90028 after 48 hrs by broth microdilution susceptibility assay; assay type: functional; details: ATCC 90028, 48 h
Enterococcus faecalis [10] = assay: Antimicrobial activity against Enterococcus faecalis ATCC 29212 assessed clear zone in inhibition per disk by CLSI disk diffusion susceptibility assay; assay type: functional
DU-145 = assay: Cytotoxicity against human DU145 cells after 48 hrs by sulforhodamine B assay; assay type: functional
Streptococcus pneumoniae [11] = assay: Antimicrobial activity against Streptococcus pneumoniae ATCC 6303 after 24 hrs by broth microdilution susceptibility assay; assay type: functional; details: ATCC 6303, 24 h
SF-295 = assay: Cytotoxicity against human SF295 cells after 48 hrs by sulforhodamine B assay; assay type: functional
Enterobacter cloacae [12] = assay: Antimicrobial activity against Enterobacter cloacae ATCC 13047 by broth microdilution susceptibility assay; assay type: functional
BXPC-3 = assay: Cytotoxicity against human BxPC3 cells after 48 hrs by sulforhodamine B assay; assay type: functional
[13] = Inhibition of tubulin polymerization
[14] = tested on: Stenotrophomonas maltophilia; assay: Antimicrobial activity against Stenotrophomonas maltophilia ATCC 13637 assessed clear zone in inhibition per disk by CLSI disk diffusion susceptibility assay; assay type: functional
SF-268 = assay: Cytotoxicity against human SF268 cells after 48 hrs by sulforhodamine B assay; assay type: functional
Neisseria gonorrhoeae [15] = assay: Antimicrobial activity against Neisseria gonorrhoeae ATCC 49226 assessed clear zone of inhibition measured per disk by CLSI disk diffusion susceptibility assay; assay type: functional
Enterococcus faecalis [16] = assay: Antimicrobial activity against Enterococcus faecalis ATCC 29212 by broth microdilution susceptibility assay; assay type: functional
Micrococcus luteus [17] = assay: Antimicrobial activity against Micrococcus luteus Presque Isle 456 by broth microdilution susceptibility assay; assay type: functional
Cryptococcus neoformans [18] = assay: Antifungal activity against Cryptococcus neoformans ATCC 90112 after 48 hrs by broth microdilution susceptibility assay; assay type: functional; details: ATCC 90112, 48 h
Cryptococcus neoformans [19] = assay: Antifungal activity against Cryptococcus neoformans ATCC 90112 after 72 hrs by broth microdilution susceptibility assay; assay type: functional; details: ATCC 90112, 72 h
Neisseria gonorrhoeae [20] = assay: Antimicrobial activity against Neisseria gonorrhoeae ATCC 49226 after 24 hrs by broth microdilution susceptibility assay; assay type: functional; details: ATCC 49226, 24 h
Escherichia coli [21] = assay: Antimicrobial activity against Escherichia coli ATCC 25922 assessed clear zone in inhibition per disk by CLSI disk diffusion susceptibility assay; assay type: functional
KM-20L2 = assay: Cytotoxicity against human KM20L2 cells after 48 hrs by sulforhodamine B assay; assay type: functional
Streptococcus pneumoniae [22] = assay: Antimicrobial activity against Streptococcus pneumoniae ATCC 6303 by broth microdilution susceptibility assay; assay type: functional
MCF7 = assay: Cytotoxicity against human MCF7 cells after 48 hrs by sulforhodamine B assay; assay type: functional
P388 = assay: Cytotoxicity against mouse P388 cells after 48 hrs by sulforhodamine B assay; assay type: functional; details: for EC50: P388, 48 h, read-out: ED50 (the source's name)
[23] = tested on: Stenotrophomonas maltophilia; assay: Antimicrobial activity against Stenotrophomonas maltophilia ATCC 13637 by broth microdilution susceptibility assay; assay type: functional
Cryptococcus neoformans [24] = assay: Antimicrobial activity against Cryptococcus neoformans ATCC 90112 assessed clear zone in inhibition per disk by CLSI disk diffusion susceptibility assay; assay type: functional
NCI-H460 = assay: Cytotoxicity against human NCI-H460 cells after 48 hrs by sulforhodamine B assay; assay type: functional
Candida albicans [25] = assay: Antifungal activity against Candida albicans ATCC 90028 after 24 hrs by broth microdilution susceptibility assay; assay type: functional; details: ATCC 90028, 24 h

Row | SMILES | MIC (Staphylococcus aureus [1]) | MIC (Escherichia coli [2]) | GI50 (A498) | MIC (Neisseria gonorrhoeae [3]) | MIC (Enterobacter cloacae [4]) | MIC (Micrococcus luteus [5]) | GI50 (OVCAR-3) | MIC (Staphylococcus aureus [6]) | GI50 (SK-MEL-5) | MIC (Streptococcus pneumoniae [7]) | MIC (Candida albicans [8]) | MIC (Candida albicans [9]) | MIC (Enterococcus faecalis [10]) | MBC (Streptococcus pneumoniae [11]) | GI50 (SF-295) | MIC (Enterobacter cloacae [12]) | IC50 [13] | MIC [14] | MIC (Neisseria gonorrhoeae [15]) | MIC (Enterococcus faecalis [16]) | also measured
1 | COc1cc(/C=C/[N+](=O)[O-])cc(OC)c1O | > 64 µg/mL | > 64 µg/mL | inactive | 4 µg/mL (≈ 17.8 µM) | >100 µg | >100 µg | inactive | >100 µg | inactive | 6.25 µg | 50 µg | > 64 µg/mL | 50 µg | > 64 µg/mL | inactive | > 64 µg/mL | 8.5 µM | 50 µg | 1.56 µg | > 64 µg/mL | GI50 (DU-145; DU-145, 48 h): 0.36 µg/mL (≈ 1.6 µM); GI50 (BXPC-3; BXPC-3, 48 h): 1.5 µg/mL (≈ 6.66 µM); GI50 (SF-268; SF-268, 48 h): 0.54 µg/mL (≈ 2.4 µM); MIC (Micrococcus luteus [17]): > 64 µg/mL; MFC (Cryptococcus neoformans [18]): 64 µg/mL (≈ 284 µM); MIC (Cryptococcus neoformans [19]): 64 µg/mL (≈ 284 µM); MBC (Neisseria gonorrhoeae [20]): 4 µg/mL (≈ 17.8 µM); MIC (Escherichia coli [21]): >100 µg; GI50 (KM-20L2; KM-20L2, 48 h): 1.1 µg/mL (≈ 4.88 µM); MIC (Streptococcus pneumoniae [22]): 64 µg/mL (≈ 284 µM); GI50 (MCF7; MCF7, 48 h): 0.44 µg/mL (≈ 1.95 µM); EC50 (P388): 2.2 µg/mL (≈ 9.77 µM); MIC [23]: > 64 µg/mL; MIC (Cryptococcus neoformans [24]): 25 µg; GI50 (NCI-H460; NCI-H460, 48 h): 0.38 µg/mL (≈ 1.69 µM)
2 | COc1ccc(/C=C/[N+](=O)[O-])cc1O | > 64 µg/mL | > 64 µg/mL | inactive | 4 µg/mL (≈ 20.5 µM) | 25 µg | >100 µg | inactive | 50 µg | inactive | 1.56 µg | 3.12 µg | 16 µg/mL (≈ 82 µM) | >100 µg | > 64 µg/mL | inactive | > 64 µg/mL | 8.2 µM | 25 µg | <0.78 µg | > 64 µg/mL | GI50 (DU-145): inactive; GI50 (BXPC-3): inactive; GI50 (SF-268): inactive; MFC (Candida albicans [25]): 32 µg/mL (≈ 164 µM); MIC (Micrococcus luteus [17]): > 64 µg/mL; MFC (Cryptococcus neoformans [18]): 32 µg/mL (≈ 164 µM); MIC (Cryptococcus neoformans [19]): 32 µg/mL (≈ 164 µM); MBC (Neisseria gonorrhoeae [20]): 4 µg/mL (≈ 20.5 µM); MIC (Escherichia coli [21]): 25 µg; GI50 (KM-20L2): inactive; MIC (Streptococcus pneumoniae [22]): 64 µg/mL (≈ 328 µM); GI50 (MCF7): inactive; ED50 (P388): inactive; MIC [23]: > 64 µg/mL; MIC (Cryptococcus neoformans [24]): 0.78 µg; GI50 (NCI-H460): inactive
3 | COc1cc(/C=C/[N+](=O)[O-])cc(OC)c1 | > 64 µg/mL | > 64 µg/mL | inactive | 2 µg/mL (≈ 9.56 µM) | >100 µg | 25 µg | inactive | 6.25 µg | inactive | >100 µg | 3.12 µg | 16 µg/mL (≈ 76.5 µM) | 12.5 µg | > 64 µg/mL | inactive | > 64 µg/mL | 3.9 µM | >100 µg | 0.78 µg | > 64 µg/mL | GI50 (DU-145; DU-145, 48 h): 1.5 µg/mL (≈ 7.17 µM); GI50 (BXPC-3; BXPC-3, 48 h): 1.6 µg/mL (≈ 7.65 µM); GI50 (SF-268; SF-268, 48 h): 2.3 µg/mL (≈ 11 µM); MFC (Candida albicans [25]): 16 µg/mL (≈ 76.5 µM); MIC (Micrococcus luteus [17]): > 64 µg/mL; MFC (Cryptococcus neoformans [18]): 16 µg/mL (≈ 76.5 µM); MIC (Cryptococcus neoformans [19]): 16 µg/mL (≈ 76.5 µM); MBC (Neisseria gonorrhoeae [20]): 2 µg/mL (≈ 9.56 µM); MIC (Escherichia coli [21]): >100 µg; GI50 (KM-20L2; KM-20L2, 48 h): 1.5 µg/mL (≈ 7.17 µM); MIC (Streptococcus pneumoniae [22]): 64 µg/mL (≈ 306 µM); GI50 (MCF7; MCF7, 48 h): 1.8 µg/mL (≈ 8.6 µM); EC50 (P388): 0.24 µg/mL (≈ 1.15 µM); MIC [23]: > 64 µg/mL; MIC (Cryptococcus neoformans [24]): 0.78 µg; GI50 (NCI-H460; NCI-H460, 48 h): 2 µg/mL (≈ 9.56 µM)
